# Test results: ChEMBL document CHEMBL4422610, “HDAC as onco target: Reviewing the synthetic approaches with SAR study of their inhibitors” (Eur J Med Chem, 2018)
# pIC50: −log10 of the molar value.
# Target: Histone deacetylase 1 (Homo sapiens, UniProt Q13547)
# Assay: Inhibition of human HDAC1 using fluorogenic HDAC substrate
# Sequence of Histone deacetylase 1 (Q13547 whole entry): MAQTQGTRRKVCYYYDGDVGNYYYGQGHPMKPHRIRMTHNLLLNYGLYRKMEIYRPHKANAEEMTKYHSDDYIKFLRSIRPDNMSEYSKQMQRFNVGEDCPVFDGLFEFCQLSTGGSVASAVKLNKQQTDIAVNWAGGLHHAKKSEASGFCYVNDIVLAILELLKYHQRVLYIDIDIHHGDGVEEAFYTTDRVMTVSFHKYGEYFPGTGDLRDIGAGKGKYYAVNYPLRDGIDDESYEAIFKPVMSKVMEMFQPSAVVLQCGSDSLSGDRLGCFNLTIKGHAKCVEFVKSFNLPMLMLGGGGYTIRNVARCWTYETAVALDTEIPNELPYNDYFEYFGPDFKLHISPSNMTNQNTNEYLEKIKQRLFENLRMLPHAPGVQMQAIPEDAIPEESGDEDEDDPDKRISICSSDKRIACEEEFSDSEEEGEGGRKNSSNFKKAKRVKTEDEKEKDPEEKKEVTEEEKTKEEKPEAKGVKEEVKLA
row,pIC50,SMILES
1,5.03,O=C(NO)c1ccc(Cn2c3c(c4cc(F)ccc42)C[S+]([O-])CC3)cc1 (stereo unspecified)

# Target: Histone deacetylase 2 (Homo sapiens, UniProt Q92769)
# Assay: Inhibition of human HDAC2 using fluorogenic HDAC substrate
# Sequence of Histone deacetylase 2 (Q92769 whole entry): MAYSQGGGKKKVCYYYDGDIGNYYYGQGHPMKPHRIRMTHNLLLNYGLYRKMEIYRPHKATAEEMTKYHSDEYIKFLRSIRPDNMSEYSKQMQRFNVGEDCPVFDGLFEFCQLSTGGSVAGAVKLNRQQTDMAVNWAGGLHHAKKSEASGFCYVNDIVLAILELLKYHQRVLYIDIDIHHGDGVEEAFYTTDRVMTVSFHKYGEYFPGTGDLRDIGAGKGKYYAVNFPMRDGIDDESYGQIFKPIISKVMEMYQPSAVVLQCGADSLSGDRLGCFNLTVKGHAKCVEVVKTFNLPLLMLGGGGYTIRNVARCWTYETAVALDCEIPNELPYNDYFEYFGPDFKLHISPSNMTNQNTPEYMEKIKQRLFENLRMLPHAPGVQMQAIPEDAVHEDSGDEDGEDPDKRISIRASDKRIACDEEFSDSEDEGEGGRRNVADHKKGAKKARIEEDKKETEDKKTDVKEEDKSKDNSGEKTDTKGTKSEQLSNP
row,pIC50,SMILES
1,4.54,O=C(NO)c1ccc(Cn2c3c(c4cc(F)ccc42)CS(=O)(=O)CC3)cc1
2,4.59,O=C(NO)c1ccc(Cn2c3c(c4ccccc42)CS(=O)(=O)CC3)cc1
3,< 4.52,O=C(NO)c1ccc(Cn2c3c(c4cc(F)ccc42)C[S+]([O-])CC3)cc1 (stereo unspecified)

# Target: Histone deacetylase 3 (Homo sapiens, UniProt O15379)
# Assay: Inhibition of human HDAC3 using fluorogenic HDAC substrate
# Sequence of Histone deacetylase 3 (O15379 whole entry): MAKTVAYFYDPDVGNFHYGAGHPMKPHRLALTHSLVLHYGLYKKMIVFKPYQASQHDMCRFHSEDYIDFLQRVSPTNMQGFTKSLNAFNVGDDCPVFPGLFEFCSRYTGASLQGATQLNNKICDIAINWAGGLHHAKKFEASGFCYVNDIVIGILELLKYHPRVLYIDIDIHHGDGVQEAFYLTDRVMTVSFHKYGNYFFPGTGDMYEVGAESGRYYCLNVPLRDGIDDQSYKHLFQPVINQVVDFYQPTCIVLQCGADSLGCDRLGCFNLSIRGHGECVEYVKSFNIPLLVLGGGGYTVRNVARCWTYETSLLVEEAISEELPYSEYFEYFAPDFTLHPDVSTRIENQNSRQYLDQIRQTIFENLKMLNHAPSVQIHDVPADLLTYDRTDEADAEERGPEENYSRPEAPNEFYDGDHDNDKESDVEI
row,pIC50,SMILES
1,4.64,O=C(NO)c1ccc(Cn2c3c(c4cc(F)ccc42)CSCC3)cc1
2,4.59,O=C(NO)c1ccc(Cn2c3c(c4cc(F)ccc42)CS(=O)(=O)CC3)cc1
3,4.54,O=C(NO)c1ccc(Cn2c3c(c4ccccc42)CS(=O)(=O)CC3)cc1
4,4.62,O=C(NO)c1ccc(Cn2c3c(c4cc(F)ccc42)C[S+]([O-])CC3)cc1 (stereo unspecified)

# Target: Histone deacetylase 4 (Homo sapiens, UniProt P56524)
# Assay: Inhibition of human HDAC4 using fluorogenic HDAC substrate
# Sequence of Histone deacetylase 4 (P56524 whole entry): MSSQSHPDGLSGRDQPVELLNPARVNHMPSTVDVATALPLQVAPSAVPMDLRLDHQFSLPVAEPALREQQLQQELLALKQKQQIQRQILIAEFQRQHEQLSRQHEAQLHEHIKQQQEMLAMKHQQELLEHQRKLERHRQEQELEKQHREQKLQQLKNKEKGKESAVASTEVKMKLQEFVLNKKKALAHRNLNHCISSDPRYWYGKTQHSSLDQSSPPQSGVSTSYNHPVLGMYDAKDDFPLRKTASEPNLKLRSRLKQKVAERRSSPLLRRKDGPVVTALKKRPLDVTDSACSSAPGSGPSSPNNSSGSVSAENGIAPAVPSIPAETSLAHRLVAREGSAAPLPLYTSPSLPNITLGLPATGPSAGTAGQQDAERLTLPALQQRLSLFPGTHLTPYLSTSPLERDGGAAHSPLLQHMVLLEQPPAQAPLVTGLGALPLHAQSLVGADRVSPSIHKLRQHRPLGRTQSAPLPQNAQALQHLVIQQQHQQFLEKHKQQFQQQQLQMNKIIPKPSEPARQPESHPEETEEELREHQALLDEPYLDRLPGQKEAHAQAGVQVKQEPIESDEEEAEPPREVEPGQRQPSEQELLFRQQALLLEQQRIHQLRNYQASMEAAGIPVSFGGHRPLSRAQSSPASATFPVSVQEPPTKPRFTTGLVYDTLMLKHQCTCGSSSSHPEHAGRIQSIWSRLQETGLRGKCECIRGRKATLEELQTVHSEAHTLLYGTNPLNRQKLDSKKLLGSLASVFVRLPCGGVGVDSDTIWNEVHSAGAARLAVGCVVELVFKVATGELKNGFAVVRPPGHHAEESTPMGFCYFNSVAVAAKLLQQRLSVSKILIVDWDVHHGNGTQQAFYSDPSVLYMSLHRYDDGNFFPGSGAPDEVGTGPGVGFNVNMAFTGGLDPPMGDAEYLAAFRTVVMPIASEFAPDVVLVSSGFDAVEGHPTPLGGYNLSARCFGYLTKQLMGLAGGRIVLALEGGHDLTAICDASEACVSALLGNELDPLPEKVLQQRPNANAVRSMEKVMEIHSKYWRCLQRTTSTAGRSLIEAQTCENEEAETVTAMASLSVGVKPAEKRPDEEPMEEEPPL
row,pIC50,SMILES
1,5.92,O=C(NO)c1ccc(Cn2c3c(c4cc(F)ccc42)C[S+]([O-])CC3)cc1 (stereo unspecified)

# Target: Histone deacetylase 5 (Homo sapiens, UniProt Q9UQL6)
# Assay: Inhibition of human HDAC5 using fluorogenic HDAC substrate
# Sequence of Histone deacetylase 5 (Q9UQL6 whole entry): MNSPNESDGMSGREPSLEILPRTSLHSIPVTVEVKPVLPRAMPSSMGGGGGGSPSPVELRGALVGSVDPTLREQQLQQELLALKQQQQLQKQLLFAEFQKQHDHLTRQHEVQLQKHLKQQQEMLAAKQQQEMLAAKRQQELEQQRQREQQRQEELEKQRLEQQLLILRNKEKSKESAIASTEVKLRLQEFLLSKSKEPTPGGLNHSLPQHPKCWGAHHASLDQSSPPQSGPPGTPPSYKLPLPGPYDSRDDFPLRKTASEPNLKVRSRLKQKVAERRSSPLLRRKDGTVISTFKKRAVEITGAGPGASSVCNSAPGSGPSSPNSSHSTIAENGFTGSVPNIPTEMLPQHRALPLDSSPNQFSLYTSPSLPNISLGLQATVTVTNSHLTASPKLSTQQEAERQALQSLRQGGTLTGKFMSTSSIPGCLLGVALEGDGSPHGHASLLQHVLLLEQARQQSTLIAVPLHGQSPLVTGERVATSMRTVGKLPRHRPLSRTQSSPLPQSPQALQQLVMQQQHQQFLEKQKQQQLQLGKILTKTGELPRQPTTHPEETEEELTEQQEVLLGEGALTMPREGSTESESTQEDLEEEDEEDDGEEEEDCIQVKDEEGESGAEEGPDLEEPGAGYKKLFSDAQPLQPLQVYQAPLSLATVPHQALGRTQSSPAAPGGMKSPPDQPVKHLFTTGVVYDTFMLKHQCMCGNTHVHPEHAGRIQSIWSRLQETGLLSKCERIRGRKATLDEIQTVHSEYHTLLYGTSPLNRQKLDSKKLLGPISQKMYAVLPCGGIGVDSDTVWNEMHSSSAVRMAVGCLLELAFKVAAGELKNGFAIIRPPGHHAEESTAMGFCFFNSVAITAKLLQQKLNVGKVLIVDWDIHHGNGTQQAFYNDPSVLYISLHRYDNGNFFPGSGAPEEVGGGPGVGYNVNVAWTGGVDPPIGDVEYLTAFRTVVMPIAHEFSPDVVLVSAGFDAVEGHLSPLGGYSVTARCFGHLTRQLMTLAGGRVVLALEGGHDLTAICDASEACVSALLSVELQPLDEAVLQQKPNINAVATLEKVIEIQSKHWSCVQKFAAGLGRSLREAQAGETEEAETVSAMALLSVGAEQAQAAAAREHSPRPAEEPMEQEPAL
row,pIC50,SMILES
1,5.74,O=C(NO)c1ccc(Cn2c3c(c4cc(F)ccc42)CSCC3)cc1
2,6.30,O=C(NO)c1ccc(Cn2c3c(c4cc(F)ccc42)CS(=O)(=O)CC3)cc1
3,6.30,O=C(NO)c1ccc(Cn2c3c(c4ccccc42)CS(=O)(=O)CC3)cc1
4,5.89,O=C(NO)c1ccc(Cn2c3c(c4cc(F)ccc42)C[S+]([O-])CC3)cc1 (stereo unspecified)

# Target: T1, Protein deacetylase HDAC6 (Homo sapiens, UniProt Q9UBN7)
# T1 sequence (Q9UBN7 whole entry): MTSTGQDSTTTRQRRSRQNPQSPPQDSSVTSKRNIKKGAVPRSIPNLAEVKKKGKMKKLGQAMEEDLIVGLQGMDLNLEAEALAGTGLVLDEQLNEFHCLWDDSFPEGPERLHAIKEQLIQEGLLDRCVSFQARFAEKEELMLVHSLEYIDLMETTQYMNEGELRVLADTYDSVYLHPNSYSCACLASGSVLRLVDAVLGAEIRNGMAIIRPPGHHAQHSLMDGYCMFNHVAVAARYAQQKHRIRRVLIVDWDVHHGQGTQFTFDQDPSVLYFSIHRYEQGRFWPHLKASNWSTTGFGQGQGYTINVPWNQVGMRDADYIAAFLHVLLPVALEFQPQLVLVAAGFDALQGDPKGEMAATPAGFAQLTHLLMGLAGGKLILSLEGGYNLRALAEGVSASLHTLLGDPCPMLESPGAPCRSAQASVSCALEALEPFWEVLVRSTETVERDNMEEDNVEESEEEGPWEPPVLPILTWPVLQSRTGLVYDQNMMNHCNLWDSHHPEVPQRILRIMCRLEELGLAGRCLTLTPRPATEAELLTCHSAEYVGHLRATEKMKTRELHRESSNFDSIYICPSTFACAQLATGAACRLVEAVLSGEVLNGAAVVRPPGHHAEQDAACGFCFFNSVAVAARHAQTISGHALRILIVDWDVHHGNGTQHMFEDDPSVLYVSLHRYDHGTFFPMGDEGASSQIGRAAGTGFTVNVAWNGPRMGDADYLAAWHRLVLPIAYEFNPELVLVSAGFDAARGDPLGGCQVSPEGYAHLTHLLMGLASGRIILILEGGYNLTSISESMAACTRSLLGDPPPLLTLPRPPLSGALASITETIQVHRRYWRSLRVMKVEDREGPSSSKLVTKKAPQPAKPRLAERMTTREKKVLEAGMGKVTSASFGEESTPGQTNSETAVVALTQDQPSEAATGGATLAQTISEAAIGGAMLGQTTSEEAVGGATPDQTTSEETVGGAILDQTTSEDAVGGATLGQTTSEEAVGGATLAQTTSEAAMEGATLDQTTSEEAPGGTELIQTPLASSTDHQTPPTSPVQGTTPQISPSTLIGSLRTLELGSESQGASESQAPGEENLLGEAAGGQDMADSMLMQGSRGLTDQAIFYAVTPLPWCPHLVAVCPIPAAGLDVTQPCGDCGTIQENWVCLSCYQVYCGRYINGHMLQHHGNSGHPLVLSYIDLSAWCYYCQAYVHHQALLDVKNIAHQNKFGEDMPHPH
# Assay: Inhibition of human HDAC6 using fluorogenic HDAC substrate
row,pIC50,SMILES
1,8.03,O=C(NO)c1ccc(Cn2c3c(c4cc(F)ccc42)C[S+]([O-])CC3)cc1 (stereo unspecified)

# Target: T2, Histone deacetylase 8 (Homo sapiens, UniProt Q9BY41)
# T2 sequence (Q9BY41 whole entry): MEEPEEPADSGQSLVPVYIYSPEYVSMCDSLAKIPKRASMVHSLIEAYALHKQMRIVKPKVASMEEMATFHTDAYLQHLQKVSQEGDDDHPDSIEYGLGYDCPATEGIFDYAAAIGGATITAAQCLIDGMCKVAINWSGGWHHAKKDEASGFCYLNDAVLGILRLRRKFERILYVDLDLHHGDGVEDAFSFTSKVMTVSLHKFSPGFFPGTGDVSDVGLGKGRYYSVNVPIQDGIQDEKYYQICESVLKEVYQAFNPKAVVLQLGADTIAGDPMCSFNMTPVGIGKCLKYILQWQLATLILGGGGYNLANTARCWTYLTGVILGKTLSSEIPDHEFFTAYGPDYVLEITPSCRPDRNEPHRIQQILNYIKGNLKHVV
# Assay: Inhibition of human HDAC8 using fluorogenic HDAC substrate
row,pIC50,SMILES
1,6.05,O=C(NO)c1ccc(Cn2c3c(c4cc(F)ccc42)CS(=O)(=O)CC3)cc1
2,5.62,O=C(NO)c1ccc(Cn2c3c(c4cc(F)ccc42)C[S+]([O-])CC3)cc1 (stereo unspecified)

# Target: Histone deacetylase 9 (Homo sapiens, UniProt Q9UKV0)
# Assay: Inhibition of human HDAC9 using fluorogenic HDAC substrate
# Sequence of Histone deacetylase 9 (Q9UKV0 whole entry): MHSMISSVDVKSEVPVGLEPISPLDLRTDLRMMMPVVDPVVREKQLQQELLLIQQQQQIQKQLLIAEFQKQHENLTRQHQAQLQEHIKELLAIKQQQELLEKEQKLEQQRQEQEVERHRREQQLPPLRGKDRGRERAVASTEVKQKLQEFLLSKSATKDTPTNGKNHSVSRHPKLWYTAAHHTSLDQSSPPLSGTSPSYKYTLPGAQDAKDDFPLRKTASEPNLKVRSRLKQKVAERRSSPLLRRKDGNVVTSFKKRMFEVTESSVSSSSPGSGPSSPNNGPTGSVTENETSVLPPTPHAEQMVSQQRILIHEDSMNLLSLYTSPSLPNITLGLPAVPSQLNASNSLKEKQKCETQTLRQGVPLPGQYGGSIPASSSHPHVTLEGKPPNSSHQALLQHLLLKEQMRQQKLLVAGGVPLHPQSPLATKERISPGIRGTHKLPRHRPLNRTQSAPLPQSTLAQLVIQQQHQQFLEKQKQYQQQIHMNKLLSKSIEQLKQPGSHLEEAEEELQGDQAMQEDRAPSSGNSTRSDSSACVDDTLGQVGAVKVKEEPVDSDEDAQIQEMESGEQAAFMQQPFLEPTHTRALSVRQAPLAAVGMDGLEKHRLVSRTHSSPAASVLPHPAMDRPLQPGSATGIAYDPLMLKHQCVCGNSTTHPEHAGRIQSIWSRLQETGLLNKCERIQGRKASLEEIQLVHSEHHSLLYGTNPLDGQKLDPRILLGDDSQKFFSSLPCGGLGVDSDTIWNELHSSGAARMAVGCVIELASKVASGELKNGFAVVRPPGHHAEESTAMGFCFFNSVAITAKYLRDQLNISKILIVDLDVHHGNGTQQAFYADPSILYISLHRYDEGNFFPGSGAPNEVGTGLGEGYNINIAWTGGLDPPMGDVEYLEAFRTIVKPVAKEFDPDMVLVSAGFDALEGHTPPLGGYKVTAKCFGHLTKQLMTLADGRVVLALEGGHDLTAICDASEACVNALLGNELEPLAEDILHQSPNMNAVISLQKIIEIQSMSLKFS
row,pIC50,SMILES
1,6.10,O=C(NO)c1ccc(Cn2c3c(c4cc(F)ccc42)CSCC3)cc1
2,6.30,O=C(NO)c1ccc(Cn2c3c(c4cc(F)ccc42)CS(=O)(=O)CC3)cc1
3,6.52,O=C(NO)c1ccc(Cn2c3c(c4ccccc42)CS(=O)(=O)CC3)cc1
4,6.30,O=C(NO)c1ccc(Cn2c3c(c4cc(F)ccc42)C[S+]([O-])CC3)cc1 (stereo unspecified)

# Target: T3, Polyamine deacetylase HDAC10 (Homo sapiens, UniProt Q969S8)
# T3 sequence (Q969S8 whole entry): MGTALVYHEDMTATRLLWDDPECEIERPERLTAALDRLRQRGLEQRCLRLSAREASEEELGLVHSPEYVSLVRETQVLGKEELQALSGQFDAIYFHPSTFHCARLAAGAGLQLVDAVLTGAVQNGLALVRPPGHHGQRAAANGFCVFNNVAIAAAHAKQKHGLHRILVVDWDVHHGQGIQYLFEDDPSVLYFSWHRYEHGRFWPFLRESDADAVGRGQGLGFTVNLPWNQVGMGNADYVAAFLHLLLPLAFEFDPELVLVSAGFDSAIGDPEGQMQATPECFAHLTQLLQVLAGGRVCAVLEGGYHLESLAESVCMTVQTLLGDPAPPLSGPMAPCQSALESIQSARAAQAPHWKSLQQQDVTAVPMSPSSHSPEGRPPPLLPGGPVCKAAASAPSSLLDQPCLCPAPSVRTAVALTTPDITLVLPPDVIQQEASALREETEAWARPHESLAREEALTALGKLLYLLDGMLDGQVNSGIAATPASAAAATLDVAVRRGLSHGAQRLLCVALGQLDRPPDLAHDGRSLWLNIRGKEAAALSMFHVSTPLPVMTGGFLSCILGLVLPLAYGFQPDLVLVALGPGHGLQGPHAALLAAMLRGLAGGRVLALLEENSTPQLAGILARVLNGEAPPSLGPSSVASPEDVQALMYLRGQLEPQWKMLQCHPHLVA
# Assay: Inhibition of human HDAC10 using fluorogenic HDAC substrate
row,pIC50,SMILES
1,4.68,O=C(NO)c1ccc(Cn2c3c(c4cc(F)ccc42)CSCC3)cc1
2,5.23,O=C(NO)c1ccc(Cn2c3c(c4cc(F)ccc42)CS(=O)(=O)CC3)cc1
3,5.11,O=C(NO)c1ccc(Cn2c3c(c4ccccc42)CS(=O)(=O)CC3)cc1
4,5.19,O=C(NO)c1ccc(Cn2c3c(c4cc(F)ccc42)C[S+]([O-])CC3)cc1 (stereo unspecified)

# Target: T4, Histone deacetylase 11 (Homo sapiens, UniProt Q96DB2)
# T4 sequence (Q96DB2 whole entry): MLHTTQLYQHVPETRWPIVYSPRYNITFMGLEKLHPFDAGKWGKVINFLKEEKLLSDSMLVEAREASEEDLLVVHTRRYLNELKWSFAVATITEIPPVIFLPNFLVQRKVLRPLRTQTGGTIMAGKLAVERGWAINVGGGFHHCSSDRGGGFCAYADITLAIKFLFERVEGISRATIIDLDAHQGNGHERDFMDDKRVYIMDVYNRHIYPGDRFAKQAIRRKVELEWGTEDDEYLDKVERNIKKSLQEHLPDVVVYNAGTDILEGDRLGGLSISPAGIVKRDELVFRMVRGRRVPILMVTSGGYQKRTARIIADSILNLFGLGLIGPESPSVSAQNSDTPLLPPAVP
# Assay: Inhibition of human HDAC11 using fluorogenic HDAC substrate
row,pIC50,SMILES
1,6.30,O=C(NO)c1ccc(Cn2c3c(c4cc(F)ccc42)C[S+]([O-])CC3)cc1 (stereo unspecified)

# Target: T1, Protein deacetylase HDAC6
# Assay: Inhibition of recombinant full-length human HDAC6 expressed in baculovirus expression system using FAM-RHKK(Ac)-H2 as substrate measured by electrophoretic mobility shift assay
row,SMILES,pIC50
1,O=C(NO)c1ccc2c(c1)CC1(CC2)CCN(Cc2ccncc2)C1=O (stereo unspecified),< 6.30
2,O=C(NO)c1ccc2c(c1)CC1(CC2)CCN(Cc2ccccc2OC(F)(F)F)C1=O (stereo unspecified),6.30 to 7.00
3,CC(C)N1CCC2(CCc3ccc(C(=O)NO)cc3C2)C1=O (stereo unspecified),< 6.30
4,O=C(NO)c1ccc2c(c1)CC1(CC2)CCN(Cc2cc(Cl)ccc2Cl)C1=O (stereo unspecified),6.30 to 7.00

# Results, then the compound that gave them:
row,pIC50,SMILES
1,≥ 7.00,O=C(NO)c1ccc2c(c1)CC1(CC2)CCN(Cc2ccc(OC(F)(F)F)cc2)C1=O (stereo unspecified)
2,≥ 7.00,COc1ccc(CN2CCC3(CCc4ccc(C(=O)NO)cc4C3)C2=O)cc1 (stereo unspecified)
